Test results published in US20220073521A1, “PYRIMIDINE AND FIVE-MEMBERED NITROGEN HETEROCYCLE DERIVATIVE, PREPARATION METHOD THEREFOR, AND MEDICAL USES THEREOF” (Tuojie Biotech (Shanghai) Co., Ltd., priority 2018, published 2022).
Read-outs that look alike come from different tables or passages of the source.

What was measured:
[1] = test system: p-ERK in KYSE-520 cells; experiment: Determination of p-ERK in KYSE-520 cells (HTRF); format: cell-based; conditions: Homo sapiens
[2] = test system: KYSE-520 cells; experiment: KYSE-520 cell proliferation experiment (CellTiter-Glo, 7 days); format: cell-based; conditions: Homo sapiens
[3] = target: T1, SHP2 wild-type phosphatase (recombinantly expressed full-length SHP2, aa 1-593) (Homo sapiens, UniProt Q06124); experiment: In vitro activity on SHP2 wild-type phosphatase (DiFMUP fluorescence); conditions: wild-type full-length SHP2, activated polypeptide IRS1 0.5 nM, DiFMUP 30 μM;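 note: enzyme preincubated at room temperature, then DiFMUP reaction run at room temperature and halted with SDS, potency derived from a logistic curve fit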
T1 sequence (Q06124 1-593): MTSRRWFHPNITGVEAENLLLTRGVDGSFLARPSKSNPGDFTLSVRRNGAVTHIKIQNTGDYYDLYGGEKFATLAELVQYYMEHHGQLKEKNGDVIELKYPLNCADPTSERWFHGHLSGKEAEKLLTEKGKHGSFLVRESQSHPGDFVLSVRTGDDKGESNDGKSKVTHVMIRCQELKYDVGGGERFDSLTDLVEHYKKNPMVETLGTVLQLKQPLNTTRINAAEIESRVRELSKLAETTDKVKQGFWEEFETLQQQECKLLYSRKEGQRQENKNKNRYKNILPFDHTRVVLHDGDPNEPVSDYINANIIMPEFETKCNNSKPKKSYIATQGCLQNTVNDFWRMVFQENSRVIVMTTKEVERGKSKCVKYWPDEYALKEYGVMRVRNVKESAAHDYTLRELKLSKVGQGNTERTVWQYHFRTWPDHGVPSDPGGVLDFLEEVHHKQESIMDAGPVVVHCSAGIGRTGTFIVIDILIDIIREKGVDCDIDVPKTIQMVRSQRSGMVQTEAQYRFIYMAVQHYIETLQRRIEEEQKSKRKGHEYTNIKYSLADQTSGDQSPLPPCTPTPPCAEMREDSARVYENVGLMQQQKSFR
Protocol: 0.2 nM recombinantly expressed full-length SHP2 (aa 1-593), 0.5 nM activated polypeptide IRS1 with double phosphorylation sites (sequence: H2N-LN(pY)IDLDLY(dPEG8)LST(pY)ASINFQK-amide) and a series of concentrations of the test compound (final concentrations were 1 μM, 0.3 μM, 0.1 μM, 0.03 μM, 0.01 μM, 0.003 μM, 0.001 μM, 0.0003 μM, 0.0001 μM, 0.00003 μM) were added to the phosphatase reaction solution (60 mM HEPES, pH 7.5 0.005% Brij-35, 75 mM NaCl, 75 mM KCl, 1 mM EDTA, 5 mM DTT). The reaction solution was shaked (350 rpm) at room temperature for 30 minutes. The reaction substrate DiFMUP with a final concentration of 30 μM was added, and the reaction solution was reacted at room temperature for 30 minutes. The phosphatase reaction was stopped by adding 5 μL of stop solution (60 mM HEPES, pH 7.5, 0.2% SDS). Ex358 nm/Em455 fluorescence value was read on the fluorescence plate reader MD SpectraMax.
The IC50 value of the compound was calculated using the four-parameter logit method. In the following formula, x represents the logarithmic form of the compound concentration, and F(x) represents the effect value (the inhibition rate of cell proliferation under the given concentration condition): F(x)=((A−D)/(1+((x/C)^B)))+D. A, B, C and D are four parameters. Different concentrations correspond to different inhibition rates, based on which an inverse curve was plotted, and the IC50 of the inhibitor was calculated from the curve. The IC50 of the compound was calculated with Primer premier 6.0.

[4] = Pharmacokinetics assay in rats; format: in vivo, SD rats; conditions: rat; for AUC / clearance / half-life / bioavailability / Cmax: male, SD, plasma; for AUC: read-out: Area under curve AUC; for clearance: read-out: Clearance CL_obs; for half-life: read-out: Half-life T1/2 (converted); for bioavailability: PO 5 mg/kg vs IV 1 mg/kg, read-out: Bioavailability F; for Cmax: read-out: Maximum plasma concentration Cmax
Protocol: Rats were used as test animals. The drug concentration in plasma at different time points was determined by LC/MS/MS method after intravenous administration or intragastrical administration of the compound of the present invention to rats. The pharmacokinetic behavior of the compound of the present invention was studied and evaluated in rats.
The atropisomer with a RT of 1.495 minutes in Examples 3 and 4, compounds of Example 17, Example 41 and Example 43.
Healthy male SD rats (6-8 weeks old), 3 rats per group.
Intravenous administration: A certain amount of the test compound was weighed, to which 10% by volume of N,N-dimethylacetamide, 33% by volume of triethylene glycol and 57% by volume of water were added to prepare a 1 mg/mL colorless, clear and transparent solution;
Intragastrical administration: A certain amount of the test compound was weighed, to which 0.5% by mass of hypromellose, 0.1% by volume of Tween 80 and 99.4% by volume of water were added to prepare a 1 mg/mL white suspension.
After an overnight fast, the SD rats were intravenously administered the test compound at an administration dose of 1 mg/kg, or intragastrically administered the test compound at an administration dose of 5 mg/kg.
(§1) The rats were intravenously administered the compound of the present invention. 0.2 ml of blood was taken from the jugular vein at 0.083, 0.25, 0.5, 1, 2, 4, 8 and 24 hours after the administration. The samples were placed in tubes containing EDTA-K2, and centrifuged at 4000 rpm and 4° C. for 5 minutes to separate the blood plasma. The plasma samples were stored at −75° C.
as §1, with “Or, the rats” for “The rats”, “were intragastrically” for “were intravenously”, “at” for “at 0.083,”
The content of the test compound in the plasma of rat after intragastrical administration of the test compound at different concentrations was determined: 50 μL of rat plasma at each time after administration was taken, to which 200 μL of a solution (50 ng/mL) of internal standard dexamethasone in acetonitrile was added. The plasma was vortex-mixed for 30 seconds, and centrifuged at 4700 rpm and 4° C. for 15 minutes. The supernatant was taken from the plasma samples, and a three-fold dilution was carried out by adding water. 2.0 μL of the supernatant was used for LC/MS/MS analysis.

Row | IC50 ([1]; KYSE-520, 2 h) [nM] | Structure (SMILES) | IC50 ([1]; 2 hours) [nM] | IC50 [2] [nM] | IC50 [3] [nM] | AUC ([4]; IV 1 mg/kg) [ng·h/mL] | clearance ([4]; IV 1 mg/kg) [mL/min/kg] | half-life ([4]; IV 1 mg/kg) [h] | bioavailability [4] [%] | AUC ([4]; PO 5 mg/kg) [ng·h/mL] | half-life ([4]; PO 5 mg/kg) [h] | Cmax ([4]; PO 5 mg/kg) [ng/mL] | Apparent distribution volume Vss_obs ([4]; IV 1 mg/kg) [L/kg]
1 |  | CNc1nccc(Sc2c(C)nc(N3CCC4(CC3)Cc3ncccc3[C@H]4N)n3ccnc23)c1Cl [Example 41, (S)-1′-(8-((3-Chloro-2-(methylamino)pyridin-4-yl)thio)-7-methylimidazo[1,2-c]pyrimidin-5-yl)-5,7-dihydrospiro[cyclopenta[b]pyridine-6,4′-piperidin]-5-amine] | 14 | 58.3 | 2.1 | 1130 ± 210 | 14.6 ± 2.6 | 5.33 ± 0.11 | 67.6 ± 10.9 | 3880 ± 631 | 4.22 ± 0.11 | 339 ± 88 | 4.75 ± 0.72
2 | 4.8 | CNc1nccc(Sc2cnc(N3CCC4(CC3)Cc3ncccc3[C@H]4N)n3ccnc23)c1Cl [Example 43, (S)-1′-(8-((3-Chloro-2-(methylamino)pyridin-4-yl)thio)imidazo[1,2-c]pyrimidin-5-yl)-5,7-dihydrospiro[cyclopenta[b]pyridine-6,4′-piperidin]-5-amine] |  | 30.4 | 2 | 6640 ± 1360 | 2.52 ± 0.52 | 4.71 ± 0.27 | 75.4 ± 7.5 | 25200 ± 2500 | 4.17 ± 0.14 | 2510 ± 405 | 0.765 ± 0.082
